Results: article PMC5050210, “BdorOBP83a-2 Mediates Responses of the Oriental Fruit Fly to Semiochemicals” (Frontiers in Physiology, 2016)

How the values were obtained:
BdorOBP84a-1 [1] = biological target: T1, BdorOBP84a-1 (Bactrocera dorsalis, UniProt A0A0G2UGI7); assay: biochemical; design: Fluorescence competitive displacement of 1-NPN from recombinant OBP, 25 °C, pH 7.4; competitor 5-50 uM; conditions: 1-NPN displacement; for IC50: 2 uM protein, 2 uM 1-NPN, extrapolated; for Kd: Kd from IC50, extrapolated
T1 construct: gene OBP84a-1; mature protein without signal peptide
T1 sequence (A0A0G2UGI7 25-167): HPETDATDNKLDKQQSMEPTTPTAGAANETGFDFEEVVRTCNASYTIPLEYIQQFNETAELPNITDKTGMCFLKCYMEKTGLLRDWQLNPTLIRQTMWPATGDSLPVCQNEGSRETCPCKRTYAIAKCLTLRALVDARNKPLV
Description: (§1) Fluorescence spectra were measured on an F-7000 FL Fluorescence Spectrophotometer (Hitachi) in a 10 mm light path quartz cuvette at 25°C. All were excited at 337 nm with emission and excitation slit of both 10 nm. The emission spectra were recorded between 350 and 500 nm. […] All measurements were performed in triplicates and mean values and standard errors are calculated. […] To determine the roles of specific OBPs in recognition of attractants in B. dorsalis, recombinant proteins of selected antenna-abundant OBPs and CSPs were obtained using a prokaryotic expression system (Figure 5). Purified OBPs and CSPs were used to determine binding affinity of each protein via fluorescence competitive binding assays. Thirteen pure attractant compounds were tested against each recombinant protein. […] Except for BdorCSP3 and BdorOBP84a-2, all remaining OBPs could bind to the tested compounds (Figure 6; Table S8). […] Alternatively they might be involved in functions other than odor detection. […] Overall, we observed lower binding affinity with our recombinant proteins and tested attractants. […] In other studies, much higher affinity has been reported. For example, competitive binding assays with a lepidopteran pheromone-binding protein can reach nearly 100% displacement (Hooper et al., [2009]; Gu et al., [2013]), and competitive binding assays with an aphid OBP (OBP7) can reach about 80% displacement with the alarm pheromone (E)-ss-farnesene (Sun et al., [2012]). The biological significance of the observed lower affinity with B. doralis OBPs here remains to be determined. It could be due to diverse binding mechanisms between different functional OBPs and the corresponding compounds. Alternatively, BdorOBP83a-2 may […] The sequences of BdorOBPs and BdorCSPs encoding mature proteins (without signal peptide) were amplified by PCR using specific primers carrying a restriction site EcoRI or XhoI (Table S2). PCR fragments were digested with both EcoRI and XhoI enzymes and the released DNA fragments were cloned into a PET-32a vector (Invitrogen), which were used to transform BL21 (DE3) E. coli competent cells (Invitrogen). A selected positive clone was grown overnight in 5 mL [compound left out] LB/ampicillin medium overnight at 37°C. Protein expression was induced with 1 mM IPTG for 3 h when the culture had reached an OD600-value of 0.7–0.9. Cells were then harvested by centrifugation and lysed by sonication. After sonication and centrifugation, most recombinant proteins were present in inclusion bodies. […] Renaturation of purified proteins were accomplished by gradient dilution at 4°C. His-tag was removed by digestion with recombinant enterokinase (Novagen) and the digested mixtures were passed through a HisTrap affinity column to remove any undigested protein. At each step during protein preparation and purification, protein extracts, and purified proteins were examined on 15% SDS-PAGE.

BdorOBP83a-2 [2] = biological target: T2, BdorOBP83a-2 (Bactrocera dorsalis, UniProt A0A0G2UEQ3); assay: biochemical; design: Fluorescence competitive displacement of 1-NPN from recombinant OBP, 25 °C, pH 7.4; competitor 5-50 uM; conditions: 1-NPN displacement, 2 uM protein, 2 uM 1-NPN
T2 construct: gene OBP83a-2; mature protein without signal peptide
T2 sequence (A0A0G2UEQ3 24-148): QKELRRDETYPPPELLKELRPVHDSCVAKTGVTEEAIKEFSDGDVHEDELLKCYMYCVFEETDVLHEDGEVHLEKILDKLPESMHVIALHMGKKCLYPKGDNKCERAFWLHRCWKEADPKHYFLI
Description: (§2) Fluorescence spectra were measured on an F-7000 FL Fluorescence Spectrophotometer (Hitachi) in a 10 mm light path quartz cuvette at 25°C. […] The emission spectra were recorded between 350 and 500 nm. […] All measurements were performed in triplicates and mean values and standard errors are calculated. […] To determine the roles of specific OBPs in recognition of attractants in B. dorsalis, recombinant proteins of selected antenna-abundant OBPs and CSPs were obtained using a prokaryotic expression system (Figure 5). Purified OBPs and CSPs were used to determine binding affinity of each protein via fluorescence competitive binding assays. Thirteen pure attractant compounds were tested against each recombinant protein. […] PCR fragments were digested with both EcoRI and XhoI enzymes and the released DNA fragments were cloned into a PET-32a vector (Invitrogen), which were used to transform BL21 (DE3) E. coli competent cells (Invitrogen). […] LB/ampicillin medium overnight at 37°C. Protein expression was induced with 1 mM IPTG for 3 h when the culture had reached an OD600-value of 0.7–0.9. Cells were then harvested by centrifugation and lysed by sonication. […] Renaturation of purified proteins were accomplished by gradient dilution at 4°C. His-tag was removed by digestion with recombinant enterokinase (Novagen) and the digested mixtures were passed through a HisTrap affinity column to remove any undigested protein. At each step during protein preparation and purification, protein extracts, and purified proteins were examined on 15% SDS-PAGE.

BdorOBP83a-1 [3] = biological target: T3, BdorOBP83a-1 (Bactrocera dorsalis, UniProt A0A0G2UGI4); assay: biochemical; design: Fluorescence competitive displacement of 1-NPN from recombinant OBP, 25 °C, pH 7.4; competitor 5-50 uM; conditions: 1-NPN displacement, 2 uM protein, 2 uM 1-NPN, extrapolated
T3 construct: gene OBP83a-1; mature protein without signal peptide
T3 sequence (A0A0G2UGI4 32-155): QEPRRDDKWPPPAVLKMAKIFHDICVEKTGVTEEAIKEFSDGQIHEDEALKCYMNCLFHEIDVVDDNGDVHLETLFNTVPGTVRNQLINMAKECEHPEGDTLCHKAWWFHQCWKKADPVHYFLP
Description: as §2

BdorOBP56h [4] = biological target: T4, BdorOBP56h (Bactrocera dorsalis, UniProt A0A0G2UMU0); assay: biochemical; design: Fluorescence competitive displacement of 1-NPN from recombinant OBP, 25 °C, pH 7.4; competitor 5-50 uM; conditions: 1-NPN displacement; for IC50: 2 uM protein, 2 uM 1-NPN, extrapolated, read-out: BdorOBP56 / IC50; for Kd: Kd from IC50, extrapolated, read-out: BdorOBP56 / Kd
T4 construct: gene OBP56h; mature protein without signal peptide
T4 sequence (A0A0G2UMU0 20-136): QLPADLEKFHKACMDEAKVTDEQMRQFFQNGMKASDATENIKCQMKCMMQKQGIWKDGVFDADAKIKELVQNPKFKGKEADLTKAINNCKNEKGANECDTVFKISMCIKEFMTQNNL
Description: as §1

BdorOBP56h [5] = biological target: T4, BdorOBP56h; assay: direct fluorescence titration; assay type: binding; conditions: 50 mM Tris-HCl pH 7.4, 25°C; 2 μM protein, 1-16 μM 1-NPN; fluorescent probe
BdorOBP83a-2 [6] = biological target: T2, BdorOBP83a-2; assay: direct fluorescence titration; assay type: binding; conditions: 50 mM Tris-HCl pH 7.4, 25°C; 2 μM protein, 1-16 μM 1-NPN; fluorescent probe
BdorOBP83a-1 [7] = biological target: T3, BdorOBP83a-1; assay: direct fluorescence titration; assay type: binding; conditions: 50 mM Tris-HCl pH 7.4, 25°C; 2 μM protein, 1-16 μM 1-NPN; fluorescent probe
BdorCSP3 = biological target: T5, BdorCSP3 (Bactrocera dorsalis, UniProt A0A0G2UMR0); assay: direct fluorescence titration; assay type: binding; conditions: 50 mM Tris-HCl pH 7.4, 25°C; 2 μM protein, 1-16 μM 1-NPN; fluorescent probe
T5 construct: gene CSP3; mature protein without signal peptide
T5 sequence (A0A0G2UMR0 23-156): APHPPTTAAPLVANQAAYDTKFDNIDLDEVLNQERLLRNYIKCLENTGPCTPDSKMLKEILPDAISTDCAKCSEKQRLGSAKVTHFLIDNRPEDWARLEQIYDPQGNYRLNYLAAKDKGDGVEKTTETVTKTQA

BdorOBP84a-1 [8] = biological target: T1, BdorOBP84a-1; assay: direct fluorescence titration; assay type: binding; conditions: 50 mM Tris-HCl pH 7.4, 25°C; 2 μM protein, 1-16 μM 1-NPN; fluorescent probe
BdorOBP84a-2 = biological target: T6, BdorOBP84a-2 (Bactrocera dorsalis, UniProt A0A0G2UEQ7); assay: direct fluorescence titration; assay type: binding; conditions: 50 mM Tris-HCl pH 7.4, 25°C; 2 μM protein, 1-16 μM 1-NPN; fluorescent probe
T6 construct: gene OBP84a-2; mature protein without signal peptide
T6 sequence (A0A0G2UEQ7 26-170): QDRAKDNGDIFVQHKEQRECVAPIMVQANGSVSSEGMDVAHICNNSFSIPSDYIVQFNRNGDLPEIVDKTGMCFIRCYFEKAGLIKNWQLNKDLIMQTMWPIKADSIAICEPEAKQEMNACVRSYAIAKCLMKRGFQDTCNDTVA

BdorOBP83a-2 [9] = biological target: T2, BdorOBP83a-2; assay: 1-NPN fluorescence competition; assay type: binding; conditions: 50 mM Tris-HCl pH 7.4, 25°C; 2 μM protein, 2 μM 1-NPN; competitive displacement
BdorOBP83a-1 [10] = biological target: T3, BdorOBP83a-1; assay: 1-NPN fluorescence competition; assay type: binding; conditions: 50 mM Tris-HCl pH 7.4, 25°C; 2 μM protein, 2 μM 1-NPN; competitive displacement
BdorOBP83a-2 [11] = biological target: T2, BdorOBP83a-2; assay: biochemical; design: Fluorescence competitive displacement of 1-NPN from recombinant OBP, 25 °C, pH 7.4; competitor 5-50 uM; conditions: 1-NPN displacement, Kd from IC50
Description: as §1

BdorOBP83a-1 [12] = biological target: T3, BdorOBP83a-1; assay: biochemical; design: Fluorescence competitive displacement of 1-NPN from recombinant OBP, 25 °C, pH 7.4; competitor 5-50 uM; conditions: 1-NPN displacement, Kd from IC50, extrapolated
Description: as §1

Row | SMILES | IC50 (BdorOBP84a-1 [1]) [µM] | Kd (BdorOBP84a-1 [1]) [µM] | IC50 (BdorOBP83a-2 [2]) [µM] | IC50 (BdorOBP83a-1 [3]) [µM] | IC50 (BdorOBP56h [4]) [µM] | Kd (BdorOBP56h [4]) [µM] | K1-NPN (BdorOBP56h [5]) | K1-NPN (BdorOBP83a-2 [6]) | K1-NPN (BdorOBP83a-1 [7]) | K1-NPN (BdorCSP3) | K1-NPN (BdorOBP84a-1 [8]) | K1-NPN (BdorOBP84a-2) | Kd (BdorOBP83a-2 [9]) [µM] | Kd (BdorOBP83a-1 [10]) [µM] | Kd (BdorOBP83a-2 [11]) [µM] | Kd (BdorOBP83a-1 [12]) [µM]
1 | CCCCCCCC1CCC(=O)O1 (centres unmarked) [γ-undecalactone] | > 50 | > 50 | – | – | – | – | – | – | – | – | – | – | – | – | – | –
2 | CCCCC1CCC(=O)O1 (centres unmarked) [γ-octalactone] | > 50 | > 50 | > 50 | > 50 | > 50 | > 50 | – | – | – | – | – | – | – | – | – | –
3 | c1ccc(Nc2cccc3ccccc23)cc1 [1-NPN] | – | – | – | – | – | – | exhibited high affinity to the fluorescent probe 1-NPN | exhibited high affinity to the fluorescent probe 1-NPN | exhibited high affinity to the fluorescent probe 1-NPN | exhibited high affinity to the fluorescent probe 1-NPN | exhibited high affinity to the fluorescent probe 1-NPN | exhibited high affinity to the fluorescent probe 1-NPN | – | – | – | –
4 | CCCC1CCCC(=O)O1 (centres unmarked) [δ-octalactone] | – | – | > 50 | – | > 50 | > 50 | – | – | – | – | – | – | 54.7 | 12700 | – | –
5 | COc1cc(/C=C/CO)ccc1O [E-coniferyl alcohol] | > 50 | > 50 | > 50 | > 50 | – | – | – | – | – | – | – | – | – | – | > 50 | > 50
6 | CC1=CCC(=C(C)C)CC1 [Terpinolene] | > 50 | > 50 | > 50 | > 50 | > 50 | > 50 | – | – | – | – | – | – | – | – | > 50 | > 50
7 | C=CC(O)CCCCC (centres unmarked) [1-octen-3-ol] | > 50 | > 50 | > 50 | > 50 | > 50 | > 50 | – | – | – | – | – | – | – | – | > 50 | > 50
